The values that follow come from US8877754B2, “Compounds, pharmaceutical compositions and uses thereof” (Boehringer Ingelheim International GmbH, priority 2010, dated 2014).

T1 sequence (O00763 129-2458 limits assumed): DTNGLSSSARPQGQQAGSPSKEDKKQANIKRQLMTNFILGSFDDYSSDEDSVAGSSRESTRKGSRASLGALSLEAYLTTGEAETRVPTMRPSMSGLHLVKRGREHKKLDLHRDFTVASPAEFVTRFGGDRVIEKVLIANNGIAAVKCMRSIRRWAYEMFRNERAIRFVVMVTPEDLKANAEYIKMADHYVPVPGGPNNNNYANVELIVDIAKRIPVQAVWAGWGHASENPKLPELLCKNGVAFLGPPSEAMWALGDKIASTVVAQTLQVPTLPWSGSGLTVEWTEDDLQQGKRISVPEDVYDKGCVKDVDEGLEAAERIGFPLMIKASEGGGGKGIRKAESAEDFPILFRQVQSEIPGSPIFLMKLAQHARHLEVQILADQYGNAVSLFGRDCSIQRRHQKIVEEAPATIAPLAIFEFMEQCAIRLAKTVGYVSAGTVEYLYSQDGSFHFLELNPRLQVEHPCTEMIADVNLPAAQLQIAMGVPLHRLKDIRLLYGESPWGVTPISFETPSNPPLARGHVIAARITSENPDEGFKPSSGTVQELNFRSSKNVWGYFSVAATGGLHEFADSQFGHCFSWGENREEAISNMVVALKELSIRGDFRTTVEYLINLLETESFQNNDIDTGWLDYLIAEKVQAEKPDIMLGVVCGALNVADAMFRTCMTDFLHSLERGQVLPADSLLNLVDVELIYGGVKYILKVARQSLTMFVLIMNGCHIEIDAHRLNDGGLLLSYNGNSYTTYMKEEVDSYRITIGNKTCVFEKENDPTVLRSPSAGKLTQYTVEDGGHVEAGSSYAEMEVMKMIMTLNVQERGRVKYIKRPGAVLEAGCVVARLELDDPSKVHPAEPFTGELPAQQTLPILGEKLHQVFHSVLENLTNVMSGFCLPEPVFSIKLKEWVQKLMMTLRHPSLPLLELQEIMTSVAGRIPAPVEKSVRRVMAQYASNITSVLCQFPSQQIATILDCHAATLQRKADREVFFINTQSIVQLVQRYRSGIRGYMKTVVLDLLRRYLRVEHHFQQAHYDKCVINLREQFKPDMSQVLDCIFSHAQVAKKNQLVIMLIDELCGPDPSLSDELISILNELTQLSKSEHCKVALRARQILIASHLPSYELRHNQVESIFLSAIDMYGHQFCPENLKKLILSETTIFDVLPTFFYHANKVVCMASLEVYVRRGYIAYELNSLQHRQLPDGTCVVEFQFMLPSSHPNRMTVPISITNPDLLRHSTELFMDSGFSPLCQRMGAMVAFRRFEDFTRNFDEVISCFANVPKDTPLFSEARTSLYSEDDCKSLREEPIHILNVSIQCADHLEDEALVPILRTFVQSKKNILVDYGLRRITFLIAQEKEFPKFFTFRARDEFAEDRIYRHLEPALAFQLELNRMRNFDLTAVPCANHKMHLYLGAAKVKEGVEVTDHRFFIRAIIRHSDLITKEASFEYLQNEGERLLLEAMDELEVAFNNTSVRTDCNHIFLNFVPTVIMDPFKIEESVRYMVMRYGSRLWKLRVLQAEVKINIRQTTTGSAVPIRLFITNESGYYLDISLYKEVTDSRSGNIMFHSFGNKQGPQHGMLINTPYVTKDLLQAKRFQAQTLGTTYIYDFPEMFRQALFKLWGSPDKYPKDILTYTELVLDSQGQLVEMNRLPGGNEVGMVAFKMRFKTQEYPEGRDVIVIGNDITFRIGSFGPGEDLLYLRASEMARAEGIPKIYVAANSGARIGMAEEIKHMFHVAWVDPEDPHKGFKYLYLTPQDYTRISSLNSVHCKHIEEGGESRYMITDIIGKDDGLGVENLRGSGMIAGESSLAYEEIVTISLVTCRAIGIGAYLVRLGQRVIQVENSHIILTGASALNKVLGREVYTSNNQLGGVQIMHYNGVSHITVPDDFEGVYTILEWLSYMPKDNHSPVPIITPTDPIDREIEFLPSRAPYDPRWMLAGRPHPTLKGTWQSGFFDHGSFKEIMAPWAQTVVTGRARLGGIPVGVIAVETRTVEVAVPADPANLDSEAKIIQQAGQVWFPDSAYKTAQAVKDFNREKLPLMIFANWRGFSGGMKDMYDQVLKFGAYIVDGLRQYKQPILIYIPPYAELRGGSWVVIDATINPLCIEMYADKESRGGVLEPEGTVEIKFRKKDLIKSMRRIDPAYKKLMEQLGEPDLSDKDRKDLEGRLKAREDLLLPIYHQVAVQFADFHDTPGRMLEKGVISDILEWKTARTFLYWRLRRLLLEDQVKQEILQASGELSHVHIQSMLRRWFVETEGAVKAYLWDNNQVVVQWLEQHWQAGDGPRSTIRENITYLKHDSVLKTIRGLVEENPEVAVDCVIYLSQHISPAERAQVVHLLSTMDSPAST

The assay addresses T1, human ACC2 (Homo sapiens, UniProt O00763).
T1 construct: made in house; host or cells: insect cells, baculoviral expression system
The assay can be described thus: ACC2 assay, spectrophotometric 384 well assay (NADH-linked, coupled lactate dehydrogenase/pyruvate kinase). The format is biochemical. The conditions noted are these: hACC2 construct lacking the 128 N-terminal amino acids; 25° C., 340 nm, 15 minutes. The procedure: Spectrophotometric 384 Well Assay
Malonyl CoA formation by acetyl CoA carboxylases is stoichometrically linked to the consumption of ATP. ACC2 activity is measured in a NADH-linked kinetic method measuring ADP generated during the ACC reaction using a coupled lactate dehydrogenase/pyruvate kinase reaction.
For biological testing, a human ACC2 construct which lacks the 128 amino acids at the N-terminus for increased solubility (nt 385-6966 in Genbank entry AJ575592) is cloned. The protein is then expressed in insect cells using a baculoviral expression system. Protein purification is performed by anion exchange.
All compounds are dissolved in dimethyl sulfoxide (DMSO) to a concentration of 10 mM.
Assay reactions are then carried out in 384-well plates, with hACC2 in an appropriate dilution and at final assay concentrations (f.c.) of 100 mM Tris (pH 7.5), 10 mM trisodium citrate, 25 mM KHCO3, 10 mM MgCl2, 0.5 mg/mL BSA, 3.75 mM reduced L-glutathione, 15 U/mL lactate dehydrogenase, 0.5 mM phosphoenolpyruvate, 15 U/mL pyruvate kinase, compounds at different concentrations at final DMSO concentrations of 1%.
The enzymatic reaction is then started by addition of a mixture of NADH, acetyl Coenzyme A (both 200 μM f.c.) and ATP (500 uM f.c.). The decrease of the optical density (slope S) is then determined at 25° C. at a wavelength of 340 nm over 15 minutes in a spectrophotometric reader.
Each assay microtiter plate contains wells with vehicle instead of compound as controls for the non-inhibited enzyme (100% CTL; ‘HIGH’) and wells without acetyl-CoA as controls for non-specific NADH degradation (0% CTL; ‘LOW’). The slope S is used for calculation of % CTL=(S(compound)−S(‘LOW’))/(S(‘HIGH’)—S(‘LOW’))*100. Compounds will give values between 100% CTL (no inhibition) and 0% CTL (complete inhibition).
For IC50 value determination, the sample slope in the presence of the test compound after subtraction of the low controls (S(compound)−S(‘LOW’)) are used.
An IC50 value is derived from the compound slopes at different dosages after subtraction of the low controls (S(compound)−S(‘LOW’)) by non-linear regression curve fitting (equation y=(A+((B−A)/(1+((C/x)^D))))).
As usually defined, the IC50 is the concentration that gives 50% inhibition. A higher IC50 goes with weaker potency. `CCNC(=O)C(C)c1ccc(C#Cc2cnc(N3CCCCC3)nc2)cc1` (stereo not drawn) [Example 2.15]: inhibition was half-maximal at 1500 nM (IC50).

Compound `CCCc1ccc(C#Cc2ccc(C(C)C(=O)NCC)cc2)cc1` (stereo not drawn) [Example 7.22] registered an IC50 of 330 nM.

In turn, `CCNC(=O)C(C)c1ccc(C#Cc2ccnc(Oc3ccccc3)c2)cc1` (stereo not drawn) [Example 7.45] came in with an IC50 of 390 nM.

As for `CCNC(=O)C(C)c1ccc(C#Cc2cnc(NC3CCCC3)nc2)cc1` (stereo not drawn) [Example 2.3], inhibition was half-maximal at 710 nM (IC50).

`CCNC(=O)C(C)c1ccc(C#Cc2cnc(N(C)C3CC3)nc2)cc1` (stereo not drawn) [Example 2.14] had an IC50 of 6800 nM.

Regarding `CCNC(=O)C(C)c1ccc(C#Cc2cnn(-c3ccccc3)c2)cc1` (stereo not drawn) [Example 7.32], half-maximal inhibition (IC50) was put at 440 nM.

Consider `CCOc1ccc(C#Cc2ccc(CCC(=O)NC)cc2)cc1` [Example 1.1, 3-[4-(4-Ethoxy-phenylethynyl)-phenyl]-N-methyl-propionamide], for which the half-inhibitory concentration (IC50) amounted to 4300 nM.

In turn, `CCOc1ccc(C#Cc2ccc(C(C)C(=O)Nc3ccncc3)cc2)cc1` (stereo not drawn) [Example 6.13] came in with an IC50 of 400 nM.

Take `CCOc1ccc(C#Cc2ccc(CC(=O)NC3CC3)cc2)cc1` [Example 1.23]: the IC50 turned out to be 1000 nM.

As to `CCNC(=O)C(C)c1ccc(C#Cc2ccc3c(c2)C(=O)CC3)cc1` (stereo not drawn) [Example 7.18], the IC50 amounted to 2200 nM.

In turn, `CCNC(=O)C(C)c1ccc(C#Cc2cnc(NC(C)CC)nc2)cc1` (stereo not drawn) [Example 2.6] came in with an IC50 of 410 nM.

In turn, `CCCCn1ccc(C#Cc2ccc(C(C)C(=O)NCC)cc2)cc1=O` (stereo not drawn) [Example 7.35] came in with a 50% inhibitory concentration (IC50) of 2100 nM.

Take `CCOc1ccc(C#Cc2ccc(C(C)C(=O)Nc3ccnn3CC)cc2)cc1` (stereo not drawn) [Example 6.11]: the IC50 worked out at 840 nM.

For `CCNC(=O)C(C)c1ccc(C#Cc2ccc(C(C)C)cc2)cc1` (stereo not drawn) [Example 7.1, N-Ethyl-2-[4-(4-isopropyl-phenylethynyl)-phenyl]-propionamide], the IC50 was determined as 1300 nM.

For `CCOc1ccc(C#Cc2ccc(C(C)C(=O)Nc3cc(C)[nH]n3)cc2)cc1` (stereo not drawn) [Example 6.21], 25500 nM corresponded to half-maximal inhibition (IC50).

`CCNC(=O)C(C)c1ccc(C#Cc2ccc(C3CC3)cn2)cc1` (stereo not drawn) [Example 7.33] returned an IC50 of 5400 nM.

As to `CCCOc1ccc(C#Cc2ccc(C(C)C(=O)NCC)cc2)c(Cl)c1` (stereo not drawn) [Example 7.40], the IC50 stood at 140 nM.

With `CCNC(=O)C(C)c1ccc(C#Cc2ccn(CC(C)C)c(=O)c2)cc1` (stereo not drawn) [Example 7.34], the IC50 is 1100 nM.

`CCNC(=O)C(C)c1ccc(C#Cc2cnc(OC(C)C)nc2)cc1` (stereo not drawn) [Example 3.4] returned a half-maximal inhibitory concentration (IC50) of 460 nM.

`CCOc1ccc(C#Cc2ccc(C(C)C(=O)NCc3ncn[nH]3)cc2)cc1` (stereo not drawn) [Example 6.19]: the IC50 is 4500 nM.

`CCOc1ccc(C#Cc2ccc(C(C)C(=O)NCC(=O)OC)cc2)cc1` (stereo not drawn) [Example 1.18] gave an IC50 of 1300 nM.

Consider `CCOc1ccc(C#Cc2ccc(C(C)C(=O)NC3CC3)cc2)cc1` (stereo not drawn) [Example 1.17], for which half-maximal inhibition (IC50) was put at 120 nM.

`CCNC(=O)C(C)c1ccc(C#Cc2cnc(N3CCC3)nc2)cc1` (stereo not drawn) [Example 2.7]: the midpoint of inhibition, the IC50, lay at 3700 nM.

In turn, `CCNC(=O)C(C)c1ccc(C#Cc2cnc(OCCF)nc2)cc1` (stereo not drawn) [Example 3.1, N-Ethyl-2-{4-[2-(2-fluoro-ethoxy)-pyrimidin-5-ylethynyl]-phenyl}-propionamide] yielded an IC50 of 8400 nM.

Regarding `CCOc1ccc(C#Cc2ccc(C(C)C(=O)Nc3ccnn3C)cc2)cc1` (stereo not drawn) [Example 6.10], the IC50 was 190 nM.

Consider `CCCOc1cc(C#Cc2ccc(C(C)C(=O)NCC)cc2)ccn1` (stereo not drawn) [Example 7.10], for which the IC50 came to 270 nM.

With `CCCOc1ccc(C#Cc2ccc(C(C)C(=O)NCC)cc2)c(OC)c1` (stereo not drawn) [Example 7.41], the IC50 stood at 510 nM.

In turn, `CCOc1ccc(C#Cc2ccc(C(C)C(=O)Nc3nncs3)cc2)cc1` (stereo not drawn) [Example 6.23] had an IC50 of 23100 nM.

As to `CCOc1ccc(C#Cc2ccc(CC(=O)N(C)C)cc2)cc1` [Example 1.21], the IC50 came out at 30000 nM.

For the compound `CCNC(=O)C(C)c1ccc(C#Cc2cnc(N3CCC4(CC4)C3)nc2)cc1` (stereo not drawn) [Example 2.10], the IC50 was 2300 nM.

The compound `CCOc1ccc(C#Cc2ccc(CC(C)C(=O)NC)cc2)cc1` (stereo not drawn) [Example 1.24] registered an IC50 of 2700 nM.

In turn, `CCNC(=O)C(C)c1ccc(C#Cc2ccc(OCCc3cn[nH]c3)cc2)cc1` (stereo not drawn) [Example 5.17] displayed an IC50 of 930 nM.

In the case of `CCNC(=O)C(C)c1ccc(C#Cc2ccnc(OCC)c2)cc1` (stereo not drawn) [Example 7.9], the IC50 amounted to 250 nM.

The compound `CCOc1ccc(C#Cc2ccc(C(C)C(=O)Nc3nnc(C)o3)cc2)cc1` (stereo not drawn) [Example 6.3] registered an IC50 of 830 nM.

Compound `CCNC(=O)C(C)c1ccc(C#Cc2cnc(OC)nc2OC)cc1` (stereo not drawn) [Example 7.5] had an IC50 of 4400 nM.

Compound `CCNC(=O)C(C)c1ccc(C#Cc2ccc(OC3CCCC3)cc2)cc1` (stereo not drawn) [Example 7.46] gave an IC50 of 110 nM.

Regarding `CCOc1ccc(C#Cc2ccc(C(C)C(=O)NC(C)CC)cc2)cc1` (stereo not drawn) [Example 1.13], the half-inhibitory concentration (IC50) came out at 2800 nM.

The compound `CCNC(=O)C(C)c1ccc(C#Cc2ccc(OCCC3CC3)cc2)cc1` (stereo not drawn) [Example 5.5] showed an IC50 of 200 nM.

For `CCOc1ccc(C#Cc2ccc(C(C)C(=O)Nc3ncco3)cc2)cc1` (stereo not drawn) [Example 6.7], the IC50 was found to be 3300 nM.

On to `CCNC(=O)C(C)c1ccc(C#Cc2ccc(OCC3CCOC3)cc2)cc1` (stereo not drawn) [Example 5.6], for which inhibition was half-maximal at 230 nM (IC50).

For the compound `CCNC(=O)C(C)c1ccc(C#Cc2ccc(OC(C)(C)C)cc2)cc1` (stereo not drawn) [Example 7.17], half-maximal inhibition (IC50) was put at 360 nM.

For the compound `CCNC(=O)C(C)c1ccc(C#Cc2cccc(OCc3ccccc3)c2)cc1` (stereo not drawn) [Example 7.11], the IC50 came to 380 nM.

Turning to `CCOc1ccc(C#Cc2ccc(C(C)C(=O)Nc3ccn[nH]3)cc2)cc1` (stereo not drawn) [Example 6.6], the IC50 was determined as 3600 nM.

`CCOc1ccc(C#Cc2ccc(C(C)C(=O)Nc3ccn[nH]3)cc2)cc1` (stereo not drawn) [Example 6.20] came in with an IC50 of 8300 nM.

The compound `CCNC(=O)C(C)c1ccc(C#Cc2cnc(NCc3ccccc3)nc2)cc1` (stereo not drawn) [Example 2.13] gave an IC50 of 240 nM.

`CCOc1ccc(C#Cc2ccc(C(C)C(=O)NC3CCOCC3)cc2)cc1` (stereo not drawn) [Example 6.17] gave a concentration for half-maximal inhibition (IC50) of 18700 nM.

The compound `CCNC(=O)C(C)c1ccc(C#Cc2ccc(OCc3ccco3)cc2)cc1` (stereo not drawn) [Example 5.1, N-Ethyl-2-{4-[4-(furan-2-ylmethoxy)-phenylethynyl]-phenyl}-propionamide] registered an IC50 of 1500 nM.

For `CCOc1ccc(C#Cc2ccc(C(C)C(=O)Nc3cccnc3)cc2)cc1` (stereo not drawn) [Example 6.14], the IC50 amounted to 240 nM.

Regarding `CCOc1ccc(C#Cc2ccc(C(C)C(=O)NC)cc2)cc1` (stereo not drawn) [Example 1.3], the half-inhibitory concentration (IC50) came to 220 nM.

For the compound `CCNC(=O)C(C)c1ccc(C#Cc2ccc(OC)c(OC)c2)cc1` (stereo not drawn) [Example 7.48], the IC50 was found to be 25700 nM.

In turn, `CCNC(=O)C(C)c1ccc(C#Cc2ccc(N3CCCCC3=O)cc2)cc1` (stereo not drawn) [Example 7.15] registered an IC50 of 4000 nM.

In turn, `CCNC(=O)C(C)c1ccc(C#Cc2ccc(OC(C)C)nn2)cc1` (stereo not drawn) [Example 7.36] displayed an IC50 of 3800 nM.

Take `CCOc1ccc(C#Cc2ccc(C(C)C(N)=O)cc2)cc1` (stereo not drawn) [Example 1.9]: the IC50 is 220 nM.

Compound `CCNC(=O)C(C)c1ccc(C#Cc2ccc(OC3CC3)cc2)cc1` (stereo not drawn) [Example 7.49] registered an IC50 of 60 nM.

For the compound `CCNC(=O)C(C)c1ccc(C#Cc2ccc(OCC3CC3(F)F)cc2)cc1` (stereo not drawn) [Example 5.20], the IC50 turned out to be 90 nM.

For `CCOc1ccc(C#Cc2ccc(C(C)C(=O)NC(C)(C)C#N)cc2)cc1` (stereo not drawn) [Example 6.26], the IC50 amounted to 18700 nM.

The compound `CCOc1ccc(C#Cc2ccc(C(C)C(=O)NCC#N)cc2)cc1` (stereo not drawn) [Example 1.11] registered an IC50 of 660 nM.

On to `CCOc1ccc(C#Cc2ccc(CC(=O)NC)cc2)cc1` [Example 1.6], for which the IC50 was determined as 5400 nM.

Consider `CCNC(=O)C(C)c1ccc(C#Cc2ccnc(OC(C)C)c2)cc1` (stereo not drawn) [Example 7.44], for which the IC50 was 250 nM.

On to `CCCNC(=O)C(C)c1ccc(C#Cc2ccc(OCC)cc2)cc1` (stereo not drawn) [Example 1.16], for which the IC50 was found to be 610 nM.

Regarding `CCOc1ccc(C#Cc2ccc(C(C)C(=O)N(C)C)cc2)cc1` (stereo not drawn) [Example 1.4], the IC50 was 16100 nM.

In turn, `CCNC(=O)C(C)c1ccc(C#Cc2ccc(CNC(C)=O)cc2)cc1` (stereo not drawn) [Example 7.26] returned a half-maximal inhibitory concentration (IC50) of 25500 nM.

Consider `CCOc1ccc(C#Cc2ccc(C(C)C(=O)Nc3cccc(OC)n3)cc2)cc1` (stereo not drawn) [Example 6.4], for which it took 410 nM to reach half-maximal inhibition (IC50).

On to `CCNC(=O)C(C)c1ccc(C#Cc2cc(OCC)ncn2)cc1` (stereo not drawn) [Example 7.13], for which the midpoint of inhibition, the IC50, lay at 2000 nM.

Regarding `CCNC(=O)C(C)c1ccc(C#Cc2ccc(OC)cc2)cc1` (stereo not drawn) [Example 4.1, N-Ethyl-2-[4-(4-methoxy-phenylethynyl)-phenyl]-propionamide], the IC50 is 260 nM.

Compound `CCNC(=O)C(C)c1ccc(C#Cc2ccc(COC)cc2)cc1` (stereo not drawn) [Example 7.27] came in with an IC50 of 10900 nM.
